Assay results from patent publication US4049497A (priority 1974, dated 1977).
Several values for one entry are separate records, joined by “and”; a condition that tells them apart may be missing. Equal values may be shown once.

Columns and labels:
[1] = Stability of activity in 50% aqueous ethanol, room temperature, 16 hours; storage and methanol stability; details: for stability in 50% aqueous ethanol: 50% aqueous ethanol of pH 2.5; for activity reduced to: 50% aqueous ethanol of pH 2.5, room temperature, 16 hours; for stability as solid powder: cold and dark place
Xanthomonas citri = assay: Minimum inhibitory concentration on nutrient agar plates, 37° C., 17 hours; type: cell-based
[2] = Partition between n-butanol and water; details: pH value of 2 to 7
leukemia L-1210 cells = assay: Chemotherapeutic effect against leukemia L-1210 in mice (survival); type: in vivo, mice (CDF 1 strain); details: i.p. once daily for 10 days
[3] = tested on: Staphylococcus aureus or Escherichia coli; assay: Standard cup-plate assay of potency
[4] = tested on: various bacteria and fungi; assay: Antibacterial and antifungal spectrum (overall); type: cell-based
[5] = tested on: Klebsiella pneumoniae PCI 602; assay: Minimum inhibitory concentration on nutrient agar plates, 37° C., 17 hours; type: cell-based
[6] = tested on: Staphylococcus aureus Smith; assay: as above; type: cell-based
[7] = tested on: Pseudomonas aeruginosa No. 12; assay: as above; type: cell-based
Escherichia coli K-12 = assay: as above; type: cell-based
[8] = tested on: Staphylococcus aureus 209P; assay: as above; type: cell-based
[9] = tested on: Vibrio anguillarum NCBM 6; assay: as above; type: cell-based
Piricularia oryzae = type: cell-based
[10] = Acute toxicity, intraperitoneal injection in mice; details: for toxicity: animal and man, as shown by LD50 in mice; for LD50: mice, intraperitoneal, 0.25-0.5% in 10% dimethylsulfoxide-water
Aspergillus niger = assay: Minimum inhibitory concentration on nutrient agar plates with 1% glucose, 27° C., 40 hours; type: cell-based
Escherichia coli NIHJ = assay: Minimum inhibitory concentration on nutrient agar plates, 37° C., 17 hours; type: cell-based
[11] = tested on: Escherichia coli JR66/W677; assay: as above; type: cell-based
Escherichia coli W677 = assay: as above; type: cell-based
Xanthomonas oryzae = type: cell-based; details: 37° C., 17 hours
[12] = tested on: Aeromonas salmonecida ATCC 14174; assay: Minimum inhibitory concentration on nutrient agar plates, 37° C., 17 hours; type: cell-based
Candida albicans 3147 = assay: Minimum inhibitory concentration on nutrient agar plates with 1% glucose, 27° C., 40 hours; type: cell-based
Saccharomyces cerevisiae = assay: as above; type: cell-based
[13] = tested on: Bacillus subtilis PCI 219; assay: Minimum inhibitory concentration on nutrient agar plates, 37° C., 17 hours; type: cell-based
[14] = isolated colorless powder (Examples 3-6)

Row | Compound | stability in 50% aqueous ethanol [1] | activity reduced to [1] [%] | stability as solid powder [1] | Minimum Inhibitory Concentration (Xanthomonas citri) [Mcg./ml.] | partition coefficient in n-butanol/water [2] | effects on the survival ratio (leukemia L-1210 cells) | potency [3, 14] | antibacterial and antifungal activity [4] | Minimum Inhibitory Concentration [5] [Mcg./ml.] | Minimum Inhibitory Concentration [6] [Mcg./ml.] | Minimum Inhibitory Concentration [7] [Mcg./ml.] | Minimum Inhibitory Concentration (Escherichia coli K-12) [Mcg./ml.] | Minimum Inhibitory Concentration [8] [Mcg./ml.] | Minimum Inhibitory Concentration [9] [Mcg./ml.] | Minimum Inhibitory Concentration (Piricularia oryzae) [Mcg./ml.] | toxicity [10] | LD50 [10] [mg/kg] | Minimum Inhibitory Concentration (Aspergillus niger) [Mcg./ml.] | Minimum Inhibitory Concentration (Escherichia coli NIHJ) [Mcg./ml.] | Minimum Inhibitory Concentration [11] [Mcg./ml.] | also measured
1 | COc1cc2c(cc1O)N=C[C@@H]1CC[C@H](O)N1C2=O [neothramycin A] | unstable | 25 | stable for a long period of time | > 100 | greater than 5 | highly favorable effects | 1000 u./mg. | low antibacterial and antifungal activity | 50 | 50 | > 100 | 100 | > 100 | 50 | 50 | low toxicity | 20 to 30 | 100 | 100 | 100 | potency ([3]; pure neothramycin A from Example 3 as authentic sample): 1000 units per mg; Minimum Inhibitory Concentration (Escherichia coli W677): 50 Mcg./ml.; Minimum Inhibitory Concentration (Xanthomonas oryzae): 50 Mcg./ml.; Minimum Inhibitory Concentration [12]: 25 Mcg./ml.; Minimum Inhibitory Concentration (Candida albicans 3147): > 100 Mcg./ml.; Minimum Inhibitory Concentration (Saccharomyces cerevisiae): 50 Mcg./ml.; Minimum Inhibitory Concentration [13]: 100 Mcg./ml.
2 | COc1cc2c(cc1O)N=C[C@@H]1CC[C@@H](O)N1C2=O [neothramycin B] | unstable | 22 | stable for a long period of time | > 100 | greater than 5 | highly favorable effects | 620 u./mg. and 835 u./mg. | low antibacterial and antifungal activity | 100 | 100 | > 100 | 100 | > 100 | 100 | > 100 | low toxicity | 20 to 30 | > 100 | 100 | > 100 | Minimum Inhibitory Concentration (Escherichia coli W677): 100 Mcg./ml.; Minimum Inhibitory Concentration (Xanthomonas oryzae): 100 Mcg./ml.; Minimum Inhibitory Concentration [12]: 50 Mcg./ml.; Minimum Inhibitory Concentration (Candida albicans 3147): > 100 Mcg./ml.; Minimum Inhibitory Concentration (Saccharomyces cerevisiae): > 100 Mcg./ml.; Minimum Inhibitory Concentration [13]: > 100 Mcg./ml.
